Entries after “also recorded” stand apart in the source; their conditions may differ. Read-outs that look alike come from different tables or passages of the source.
How the values were obtained:
[1] = test system: primary human CD4 T-lymphocytes; test: Apoptosis in primary CD4 T cells (Annexin V and 7-AAD staining); assay type: cell-based; conditions: for apoptotic effect (in words) / apoptosis %: SPPs 10 μM; for apoptotic effect (in words): compared with HU 100 μM, HU+ddI or untreated control; for apoptosis %: total apoptotic events compared to untreated control, day 10, Imatinib 10 μM, HU 100 μM, ddI 2 μM
Method: (§1) Unstimulated (quiescent/resting, day 0 to 5) primary human CD4 T-lymphocytes were obtained by magnetic bead separation from healthy, normal donors. After five days in culture, cells were activated with PHA (5 μg/ml) to induce hyperproliferation then, at day 7, IL-2 (20 U/ml) was added (stimulated, day 6 to 10). All available compounds were tested at a concentration of 10 μM. […] At day 10, cells were harvested. Proliferation of T cells, cultured as described above, was studied by staining the cells with carboxyfluorescein diacetate-succinimidyl ester (CFSE) at day 0 (immediately after infection). For data analysis, the mitotic index (M) was used, calculating the sum of mitotic events at each proliferation cycle. To extract a relative number, M was normalized to the total number of cells acquired using the equation M=Σ[(Xn(T)−Xn(T)/2^n)], that gives the number of mitotic events from the experimentally obtained values of the proportion of T cells under each division peak n (Xn) and the total T cells (T). To study the effect of the compounds on apoptosis T cells were cultured as described above and at day 10 cells were stained with Annexin V and 7-AAD, in order to determine the percentage of total apoptotic events.
We determined the capacity of the compounds to affect the percentages of apoptotic events after 10 days of treatment in primary CD4 T cells.

HIV-1 NL 4.3 [2] = test: HIV-1 replication in quiescent CD4 T cells (p24 Ag ELISA); assay type: cell-based; conditions: for inhibition at 10 µM: Human immunodeficiency virus 1, CD4+ T, read-out: reduction of HIV-1 p24 production / inhibition of HIV replication compared to untreated control; for anti-HIV activity in quiescent cells (in words) / HIV quiescent cells (percentage p24 compared to the untreated control): SPPs 10 μM; for anti-HIV activity in quiescent cells (in words): compared with HU 100 μM, HU+ddI or untreated control; for Antiviral activity in quiescent cells: class symbol, Table 6; for HIV quiescent cells (percentage p24 compared to the untreated control): quiescent CD4 T cells, day 10, HU 100 μM, HU 100 μM+ddI 2 μM
Method: Unstimulated (quiescent/resting, day 0 to 5) human CD4 T-lymphocytes, obtained by magnetic bead separation from healthy, normal donors, were infected with HIV-1 NL 4.3. After five days in culture, cells were stimulated with PHA (5 μg/ml) to induce proliferation, and then, at day 7, IL-2 (20 U/ml) was added (stimulated, day 6 to 10). All available compounds were tested at a concentration of 10 μM. HU 100 μM and HU 100 μM+ddI 2 μM were also employed as comparators and the negative control was left untreated. At day 10, cells and supernatants were harvested and HIV-1 p24 Ag was measured by ELISA. HIV replication was expressed as percentage p24 compared to the untreated control.

HIV-1 NL 4.3 [3] = test: HIV-1 replication in activated T cells (PBMC, p24 Ag ELISA); assay type: cell-based; conditions: for inhibition at 10 µM: Human immunodeficiency virus 1, T-cell, read-out: inhibition of p24 production / HIV replication compared to untreated control; for anti-HIV activity in activated T cells (in words): SPPs 10 μM, compared with HU 100 μM, HU+ddI or untreated control; for Antiviral activity in activated cells: class symbol, Table 6; for HIV activated cells (% p24 compared to not treated control): 7 days, SPPs and Imatinib 10 μM, HU 100 μM, ddI 2 μM
Method: The experimental setup described below allows us to detect direct antiviral activity of a compound.
Human PBMC, obtained from healthy, normal donors, were stimulated for two days with PHA 5 μg/ml. Then cells were infected with HIV-1 NL 4.3, IL-2 was added (20 U/ml), cells were plated (10^5 cells per well in 200 μl) and drug treatment started. […] The control was left untreated. After 7 days of incubation at 37° C. supernatants were harvested and HIV-1 p24 Ag was measured by ELISA.

[4] = test system: primary human CD4 T-lymphocytes; test: Cell hyperproliferation in primary T cells (CFSE staining, mitotic index); assay type: cell-based; conditions: for anti-proliferative activity (in words) / mitotic index %: SPPs 10 μM, Imatinib 10 μM; for anti-proliferative activity (in words): compared with HU 100 μM, HU+ddI or untreated control; for Anti-proliferative capacity: class symbol, Table 6; for decrease/inhibition of cell proliferation compared to not treated control: SPPs and Imatinib 10 μM; for decrease/inhibition of cell proliferation compared to not treated control / mitotic index %: HU 100 μM; for mitotic index %: % of not treated control (100%), day 10
Method: We built up an experimental model using primary T cells to study the activity of the compounds on induced hyperproliferation of cells, which is a characteristic of both chronic viral diseases and cancer including HIV and leukemia.
as §1

[5] = test system: Human peripheral blood mononuclear cells (PBMC); conditions: 7 days
[6] = test system: Human peripheral blood mononuclear cells (PBMC); test: Cell cycle analysis of anti-CD3/anti-CD28 stimulated PBMC (Ki-67 and 7-AAD flow cytometry); assay type: cell-based; conditions: 24 hours treatment; compared to the not treated control; FIG. 6
Method: A 48 well plate was coated with anti-CD3 antibody by dispensing 100 microliter of a 10 μg/ml antibody solution followed by overnight incubation at 4° C. Human peripheral blood mononuclear cells (PBMC), obtained from healthy, normal donors, were then plated (2×10^6 cells per well in 1 ml) in complete culture medium supplemented with anti-CD28 antibody (2 μg/ml). Stimulated cells were cultured for 2 days then treated with HU, CsA, and VS1-002 to induce cell cycle arrest.

[7] = % of not treated control (100%), SPPs 10 μM, Imatinib 10 μM, HU 100 μM, HU 100 μM+ddI 2 μM

| SMILES | apoptotic effect (in words) [1] | inhibition at 10 µM (HIV-1 NL 4.3 [2]; quiescent cells, 10 μM) [%] | anti-HIV activity in quiescent cells (in words) (HIV-1 NL 4.3 [2]) | Antiviral activity in quiescent cells (HIV-1 NL 4.3 [2]) | inhibition at 10 µM (HIV-1 NL 4.3 [3]; activated T cells, 10 μM) [%] | anti-HIV activity in activated T cells (in words) (HIV-1 NL 4.3 [3]) | Antiviral activity in activated cells (HIV-1 NL 4.3 [3]) | anti-proliferative activity (in words) [4] | Anti-proliferative capacity [4] | % viability ([5]; human, 10 μM) [%] | decrease/inhibition of cell proliferation compared to not treated control [4] [%] | further results |
| --- | --- | --- | --- | --- | --- | --- | --- | --- | --- | --- | --- | --- |
| CCCCNc1nc(SCC)nc2c1cnn2CC(Cl)c1ccccc1 (stereo not shown) [VS1-002, N-butyl-1-(2-chloro-2-phenylethyl)-6-(ethylthio)-1H-pyrazolo[3,4-d]pyrimidin-4-amine] | did not affect the percentage of apoptotic events; also recorded: not proapoptotic | 90 | antiviral activity in both quiescent and in hyperactivated cells | +++ (excellent (+++, greater than 70% activity)) | 86 | inhibited HIV replication in activated T cells | +++ (excellent (+++, greater than 70% activity)) | as effective as 100 μM HU; also recorded: comparable to that of 100 μM HU and superior to that of Imatinib | +++ (excellent (+++, greater than 70% activity)) | 108.9 ± 8.7 |  | less proapoptotic effect than HU 100 μM+ddI 2 μM combination ([1]; 10 μM, spider graph FIG. 3): more than 20%; less toxicity than HU 100 μM+ddI 2 μM combination ([5]; human, 10 μM): 20%; effect on cell cycle phases (in words) [6]: decreased the percentage of cells in S phase with an increase in the percentage of cells in G1 phase |
| Fc1ccc(CNc2ncnc3c2cnn3CC(Cl)c2ccc(Cl)cc2)cc1 (stereo not shown) [VS1-029, 1-[2-chloro-2-(4-chlorophenyl)ethyl]-N-(4-fluorobenzyl)-1H-pyrazolo[3,4-d]pyrimidin-4-amine] | no more apoptotic than HU; also recorded: slight increase |  | good anti-HIV activity | +++ (excellent (+++, greater than 70% activity)) |  | good anti-HIV activity | +++ (excellent (+++, greater than 70% activity)) | good anti-proliferative capacity (superior to 100 μM HU) | +++ (excellent (+++, greater than 70% activity)) | 96.8 ± 4.5 | 95 | inhibition at 10 µM (HIV-1 NL 4.3 [2]): 94%; inhibition at 10 µM (HIV-1 NL 4.3 [3]): 88%; more anti-proliferative than HU+ddI ([4]; 10 μM, spider graph FIG. 3): about 20% |
| CSc1nc(NCCc2ccccc2)c2cnn(CC(Cl)c3ccccc3)c2n1 (stereo not shown) [VS1-004, 1-(2-chloro-2-phenylethyl)-6-(methylthio)-N-(2-phenylethyl)-1H-pyrazolo[3,4-d]pyrimidin-4-amine] | only induced a small apoptotic effect; also recorded: same level; also recorded: slight increase | 93 | good antiviral potency; also recorded: as effective as HU+ddI | +++ (excellent (+++, greater than 70% activity)) | 88 | good antiviral potency; also recorded: as effective as HU+ddI | +++ (excellent (+++, greater than 70% activity)) | as anti-proliferative as 100 μM HU; also recorded: as effective as HU+ddI; also recorded: as effective as 100 μM HU | +++ (excellent (+++, greater than 70% activity)) | 74.9 ± 13.8 |  |  |
| CSc1nc(Nc2cccc(Cl)c2)c2cnn(CC(Cl)c3ccccc3)c2n1 (stereo not shown) [VS1-011, N-(3-chlorophenyl)-1-(2-chloro-2-phenylethyl)-6-(methylthio)-1H-pyrazolo[3,4-d]pyrimidin-4-amine] | induced apoptosis; also recorded: extremely proapoptotic; also recorded: strongly proapoptotic | 80 | active as antivirals |  | 85 | active as antivirals |  | increased anti-proliferative capacity compared to 100 μM HU |  | 70.4 ± 16.9 | 100 | increase in apoptotic events compared to the control ([1]; 10 μM, 10 days): 182% |
| CCN(CC)c1nc(SC)nc2c1cnn2CC(Cl)c1ccccc1 (stereo not shown) [VS1-032] |  |  |  |  |  |  |  | comparable or even greater than HU |  |  |  | apoptosis % [1]: 131.8 ± 58.6%; HIV quiescent cells (percentage p24 compared to the untreated control) (HIV-1 NL 4.3 [2]): 19.7 ± 7.2%; HIV activated cells (% p24 compared to not treated control) (HIV-1 NL 4.3 [3]; activated T cells): 59.3 ± 8.1%; mitotic index % [4]: 22.0 ± 14.5%; % viability [5, 7]: 99.1 ± 3.7% |
| NC(=O)NO [HU, hydroxyurea, reference compound] | no significant increases; also recorded: did not substantially affect the percentage of total apoptotic events |  | potent antiviral activity |  |  | not effective in inhibiting HIV replication |  | did substantially decrease cell proliferation |  |  |  | inhibition at 100 µM ([4]; Homo sapiens, T-lymphocyte, read-out: decrease/inhibition of cell proliferation compared to not treated control): 74%; effect on cell cycle phases (in words) [6]: decreased the percentage of cells in S phase with an increase in the percentage of cells in G1 phase |
| CSc1nc(NCCc2ccccc2)c2cnn(C=Cc3ccccc3)c2n1 [VS1-005, 1-styryl-6-methylthio-N-(2-phenylethyl)-1H-pyrazolo[3,4-d]pyrimidin-4-amine] | did not induce apoptosis; also recorded: no effect on apoptosis; also recorded: did not affect the percentage of apoptotic events | 97 | strong anti-HIV activity; also recorded: same antiviral power |  |  | active also against HIV in activated T cells; also recorded: same antiviral power; also recorded: same antiviral activity |  | slightly lower compared to HU |  | 84.3 ± 22.7 | 27 | anti-proliferative capacity less than HU+ddI ([4]; 10 μM, spider graph FIG. 3): 50% |
| CCOCCNc1nc(SC)nc2c1cnn2CC(Cl)c1ccccc1 (stereo not shown) [VS1-033] |  |  |  |  |  |  |  | comparable or even greater than HU |  |  |  | apoptosis % [1]: 138.6 ± 49.7%; HIV quiescent cells (percentage p24 compared to the untreated control) (HIV-1 NL 4.3 [2]): 15.0 ± 3.0%; HIV activated cells (% p24 compared to not treated control) (HIV-1 NL 4.3 [3]; activated T cells): 57.1 ± 10.2%; mitotic index % [4]: 15.4 ± 6.7%; % viability [5, 7]: 108.1 ± 3.5% |
